# Measured values taken from patent publication US11479587B2, “Cationic intrinsically disordered antimicrobial peptides” (priority 2016, dated 2022).
# Several values for one entry are separate records, joined by “and”; a condition that tells them apart may be missing. Equal values may be shown once. Residues, ends and D or L forms follow the SMILES beside them.
# B1: biotinylated rhHRNR2591-2694: biotinylated rhHRNR2591-2694, a 103 amino acid fragment of hornerin (protein)
# chain: SQHGSGSGHSSGYGQHGSRSGQSSRGERHGSSSGSSSHYGQHGSGSRQSSGHGRQGSGSGQSPSRGRHGSGLGHSSSHGQHGSGSGRSSSRGPYESRLGHSSVF
# modifications: biotinylated (position not given)
# notes: biotinylated rhHRNR2591-2694, a 103 amino acid fragment of hornerin
# Tests used:
# [1] = test system: P. aeruginosa ATCC 10145; experiment: CFU-assay, P. aeruginosa-cidal activity; type: cell-based, Pseudomonas aeruginosa
# [2] = test system: S. aureus ATCC 6538; experiment: CFU-assay, S. aureus-cidal activity; type: cell-based, Staphylococcus aureus
# Procedure, shortened: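 Bactericidal CFU-assay in nutrient-deficient 10 mM sodium phosphate buffer pH 5.5 with 0.25% glucose, counting surviving colonies across twofold peptide dilutions from 300 μg/ml to 19 ng/ml. Output is minimal bactericidal concentration (e.g. MBC90, MBC100); some peptides also tested at pH 7.0.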
# [3] = test system: Streptococcus pneumoniae ATCC 33400; experiment: CFU-assay, antimicrobial activity spectrum; type: cell-based; settings: pH 7.3, 0.25% glucose
# [4] = test system: Streptococcus pyogenes ATCC 12344; experiment: CFU-assay, antimicrobial activity spectrum; type: cell-based
# [5] = test system: Escherichia coli ATCC11775; experiment: CFU-assay, antimicrobial activity spectrum; type: cell-based
# [6] = test system: Burkholderia cepacia ATCC 25416; experiment: CFU-assay, Burkholderia cepacia-cidal activity; type: cell-based
# [7] = test system: Staphylococcus epidermidis ATCC 14990; experiment: CFU-assay, antimicrobial activity spectrum; type: cell-based; settings: pH 5.5, 0.25% glucose
# [8] = test system: Klebsiella pneumoniae ATCC 13883; experiment: CFU-assay, Klebsiella pneumoniae-cidal activity; type: cell-based
# [9] = test system: Salmonella typhimurium ATCC 13311; experiment: CFU-assay, antimicrobial activity spectrum; type: cell-based
# [10] = test system: methicillin-resistant S. aureus strain (ATCC 43300); type: cell-based, Staphylococcus aureus; settings: ATCC 43300, 18 h
# Description: Furthermore, sensitivity of a methicillin-resistant S. aureus strain (ATCC 43300) was investigated for palmitoylated CIDAMPs in a microtiter plate screening model, with incubation in Mueller-Hinton medium at 37° C. for 18 h using resazurin as a marker for cell viability.
# A sample of each culture was then diluted 40-fold in fresh broth and incubated at 37° C. for 1.5-3 h. […] All the plates were covered and incubated at 37° C. for 18 h.
# (§1) Inhibition of bacterial growth was determined using resazurin as a marker for cell viability. Resazurin was added to each well, at 0.001% final concentration, and plates incubated at 37° C. for 2 h. Fluorescence intensity was measured, using F (top read), ex 560/10 nm, em 590/10 nm, using a Tecan M1000 Pro monochromator plate reader.
# [11] = Cytotoxicity (resazurin) assay
# Procedure, shortened: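 CC50 values were derived by fitting concentration-dependent percentage cytotoxicity to a dose–response function. The read-out was resazurin fluorescence (ex 560, em 590 nm; 100 μM, 3 h) after 20 h compound treatment of HEK293 cells at 37 °C in DMEM with 10% FBS.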
# [12] = Hemolysis assay; type: cell-based; settings: for HC50 at 1 h: human, washed erythrocytes from EDTA-blood, pH 7.4
# Procedure, shortened: (§2)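 Washed EDTA-blood erythrocytes in 5% PBS, pH 7.4, were rotated 1 h at 37° C with peptides at 0, 3, 10, 30, 60 μm. Hemoglobin release read at 540 nm as % of 0.1% Triton X-100 hemolysis; CC50 from dose-response curve of triplicates.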
# [13] = test system: C. albicans ATCC 928; settings: for MIC: ATCC 928, 18 h, pH 7.4
# [14] = test system: C. neoformans
# [15] = test system: erythrocytes; experiment: Hemolysis assay; type: cell-based
# Procedure, shortened: as §2
# [16] = test system: A. baumannii ATCC 19606; type: cell-based, Acinetobacter baumannii; settings: ATCC 19606, 2 h
# Description: as §1
# [17] = test system: E. coli ATCC 25922; type: cell-based, Escherichia coli; settings: ATCC 25922, 2 h
# Description: as §1
# [18] = test system: P. aeruginosa ATCC 27853; type: cell-based, Pseudomonas aeruginosa; settings: ATCC 27853, 2 h
# Description: as §1
# [19] = test system: E. coli ribosomal proteins; experiment: Immunodotblot binding to HPLC-separated ribosomal proteins; settings: 10 μg/ml, 4° C. overnight, dot blot
# From the text: The question whether CIDAMP-dependent morphological changes in bacteria are direct or indirect was addressed by testing the hypothesis that CIDAMPs directly bind to ribosomes and ribosomal proteins. For this purpose, ribosomes of E. coli were separated and partially purified by SulfoLink®-coupling resin-chromatography (Maguire et al., 2008, RNA, 14, 188-195) followed by reversed phase high performance liquid chromatography (HPLC) using an Aeris 3.6 μm C18 widepore RP-HPLC column (Phenomenex) and an increasing gradient of acetonitrile (ACN, max.: 80% v/v) in aqueous 0.1% trifluoroacetic acid.
# Aliquots of each HPLC fraction were lyophilized, the residues dissolved in 5 μl water each and then applied to a nitrocellulose membrane. After blocking with 5% bovine serum albumin in PBS and washing with PBS, biotinylated rhHRNR2591-2694, a 103 amino acid fragment of hornerin, (10 μg/ml) was added and incubated at 4° C. overnight. After 4-times washing, Strep-Tactin® (1:200; iba lifescience) in PBS was added, incubated for 1 h and then, after 6 times washing with PBS, substrate was added and the blots developed.
# [20] = standard conditions at pH 7.4, activity at concentration <32 pg/ml
molecule,measurement,setting,value
CCCCCCCCCCCCCCCC(=O)N[C@@H](CO)C(=O)N[C@@H](Cc1c[nH]cn1)C(=O)N[C@@H](Cc1c[nH]cn1)C(=O)N[C@@H](CCCNC(=N)N)C(=O)N[C@@H](CS)C(=O)N[C@@H](CS)C(=O)N[C@@H](CCCNC(=N)N)C(=O)N[C@@H](CO)C(=O)N[C@@H](Cc1c[nH]cn1)C(=O)N[C@@H](CCCNC(=N)N)C(=O)N[C@@H](CS)C(=O)N[C@@H](CCCNC(=N)N)C(=O)N[C@@H](CCCNC(=N)N)C(=O)O [Pal-LCE3B56-68] (HELM PEPTIDE1{[CCCCCCCCCCCCCCCC(=O)[*:2]].S.H.H.R.C.C.R.S.H.R.C.R.R}$$$$V2.0),P. aeruginosa MBC90,[1]; pH 5.5,0.088 µM
same,P. aeruginosa MBC100,[1]; pH 5.5,0.176 µM
same,MBC90,"[1]; pH 5.5, 0.25% glucose",0.075 µg/mL
same,MBC100,"[1]; pH 5.5, 0.25% glucose",0.3 µg/mL
same,S. aureus MBC90,[2]; pH 5.5,0.011 µM
same,S. aureus MBC100,[2]; pH 5.5,0.078 µM
same,MBC90,"[2]; pH 5.5, 0.25% glucose",<0.019 µg/mL
same,MBC100,"[2]; pH 5.5, 0.25% glucose",0.15 µg/mL
same,MBC90,[3],0.59 µg/mL
same,MBC100,[3],2.35 µg/mL
same,MBC90,"[4]; pH 6.0, 0.25% glucose",0.15 µg/mL
same,MBC100,"[4]; pH 6.0, 0.25% glucose",0.59 µg/mL
same,MBC90,"[4]; pH 7.3, 0.25% glucose",0.15 µg/mL
same,MBC100,"[4]; pH 7.3, 0.25% glucose",0.3 µg/mL
same,MBC90,"[5]; pH 5.5, 0.25% glucose",0.3 µg/mL
same,MBC90,"[5]; pH 7.3, 0.25% glucose",0.59 µg/mL
same,MBC100,"[5]; pH 7.3, 0.25% glucose",1.18 µg/mL
same,MBC90,"[6]; pH 5.5, 0.25% glucose",>300 µg/mL
same,MBC100,"[6]; pH 5.5, 0.25% glucose",>300 µg/mL
same,MB100,[6]; pH 7.3,4.9 µM
same,MBC90,[6]; pH 7.3,2.4 µM
same,MBC90,"[6]; pH 7.3, 0.25% glucose",4.7 µg/mL
same,MBC100,"[6]; pH 7.3, 0.25% glucose",9.38 µg/mL
same,MBC100,"[6]; pH 7.3, 0.25% glucose, listed as palmitoyl-LCE3B56-68",9.375 µg/mL
same,MBC90,[7],0.3 µg/mL
same,MBC100,[7],0.3 µg/mL
same,MBC90,[8]; pH 5.5,0.052 µM
same,MBC100,[8]; pH 5.5,4.9 µM
same,MBC90,"[8]; pH 5.5, 0.25% glucose",0.15 µg/mL
same,MBC100,"[8]; pH 5.5, 0.25% glucose",9.375 µg/mL
same,MBC90,"[8]; pH 7.3, 0.25% glucose",2.35 µg/mL
same,MBC100,"[8]; pH 7.3, 0.25% glucose",4.7 µg/mL
same,MBC90,[9]; pH 5.5,0.02 µM
same,MBC100,[9]; pH 5.5,0.155 µM
same,MBC90,"[9]; pH 5.5, 0.25% glucose",0.038 µg/mL
same,MBC100,"[9]; pH 5.5, 0.25% glucose",0.3 µg/mL
same,MBC90,"[9]; pH 7.3, 0.25% glucose",1.18 µg/mL
same,MBC100,"[9]; pH 7.3, 0.25% glucose",2.35 µg/mL
same,"MIC, S. aureus ATCC 43300",[10],≥16 µg/mL
same,CC50,[11],> 32 µg/mL and > 16.6 µM
same,CC50,[12],> 100 µg/mL
same,HC50 at 1 h,[12],> 78 µM
same,"MIC, C. albicans ATCC 90028",[13]; ATCC 928,≥1 µg/mL
same,MIC,[13],1 to 32 µg/mL
same,"Antifungal activity, C. albcans ATCC90028",[13]; [20],A (A-active)
same,"MIC, C. neoformans ATCC 208821",[14],≥0.25 µg/mL
same,"Antifungal activity, C. neoformans ATCC 208821",[14]; [20],A (A-active)
CCCCCCCCCCCCCCCC(=O)NCC(=O)N[C@@H](CCCNC(=N)N)C(=O)N[C@@H](CCCNC(=N)N)C(=O)NCC(=O)N[C@@H](CO)C(=O)NCC(=O)N[C@@H](CC(C)C)C(=O)NCC(=O)N[C@@H](CCCNC(=N)N)C(=O)N[C@@H](CO)C(=O)N[C@@H](CO)C(=O)N[C@@H](CO)C(=O)N[C@@H](CCCNC(=N)N)C(=O)NCC(=O)N[C@@H](CCC(N)=O)C(=O)N[C@@H](CCCNC(=N)N)C(=O)NCC(=O)N[C@@H](CO)C(=O)NCC(=O)N[C@@H](CO)C(=O)NCC(=O)N[C@@H](CCCNC(=N)N)C(=O)O [Pal-HR 1-18 HR] (HELM PEPTIDE1{[CCCCCCCCCCCCCCCC(=O)[*:2]].G.R.R.G.S.G.L.G.R.S.S.S.R.G.Q.R.G.S.G.S.G.R}$$$$V2.0),"MIC, S. aureus ATCC 43300",[10],≥8 µg/mL
same,CC50,[11],> 32 µg/mL and > 13.3 µM
same,HC50,[12],> 300 µg/mL
same,HC50 at 1 h,[12],> 119 µM
same,hemolytic activity (in words),[15],low hemolytic activity
same,"MIC, A. baumannii ATCC 19606",[16],≥1 µg/mL
same,"MIC, E. coli ATCC 25922",[17],≥4 µg/mL
same,"MIC, P. aeruginosa ATCC 27853",[18],≥16 µg/mL
same,MIC,[13],1 to 32 µg/mL
same,"MIC, C. neoformans ATCC 208821",[14],≥1 µg/mL
B1,binding to ribosomal proteins (in words),[19],specific binding
